Read-outs that look alike come from different tables or passages of the source.

As usually defined, the EC50 is the concentration giving half of the maximal effect. As a reminder, the CC50 is the concentration giving 50% cytotoxicity. One may read the IC50 as the point on the concentration scale where inhibition reaches its midpoint.

For one series, the system named is HCV genotype 1b replicon. As to the kind of experiment: HCV Replicon Assay (Zluc, luciferase). The class given is cell-based. The following applies: Zluc cells (Huh-7-derived), 72 hours of incubation. On the procedure: Huh-7-derived cell line (Zluc) that harbors an HCV genotype 1b replicon and a luciferase reporter gene was grown in Dulbecco's Modified Eagle Medium (DMEM) supplemented with 10% fetal bovine serum, 2 mM GlutaMAX, 1% MEM nonessential amino acids, 100 IU/mL penicillin, 100 μg/mL streptomycin, and 0.5 mg/mL Geneticin® (G418). For dose response testing the cells were seeded in 96-well plates at 7.5×10^3 cells per well in a volume of 50 μL, and incubated at 37° C./5% CO2. Drug solutions were made up freshly in Huh-7 media as 2× stocks. Ten additional 5-fold dilutions were prepared from these stocks in DMEM without G418. At least three hours after Zluc cells were seeded, drug treatment was initiated by adding 50 μL of drug dilutions to the plates in duplicate. Final concentrations of drug ranged from 100 μM to […]. Cells were then incubated at 37° C./5% CO2. Alternatively, compounds were tested at two concentrations (1 μM and 10 μM). […] For this, media was removed from the plates via gentle tapping. Fifty microliters of ONE-glo luciferase assay reagent was added to each well. The plates were shaken gently for 3 min at room temperature and luminescence was measured on a Victor^3 V 1420 multilabel counter (Perkin Elmer) with a 1 second read time using a 700 nm cut-off filter. The EC50 values were calculated from dose response curves from the resulting best-fit equations determined by Microsoft Excel and XLfit 4.1 software. When screening at two fixed concentrations, the results were expressed as % inhibition at 1 μM and 10 μM.

Series [1] in a line: Cytotoxicity evaluation, CellTiter-Blue Cell Viability Assay. The class given is cell-based. The settings on record: human, Zluc cells, read-out: HCV Replicon CC50. As for the experimental part: (§1) For cytotoxicity evaluation, Zluc cells were treated with test compound as described herein, and cell viability was monitored using the CellTiter-Blue Cell Viability Assay (Promega) by adding 20 μL of the assay solution to each well. The plates were then incubated at 37° C./5% CO2 for at least 3 hours.
On the technique in general: The colour change of resazurin is a common sign of viable cells or microbes.

Series [2] is described as follows: Liver triphosphate after a single oral dose in cynomolgus monkeys. The class given is in vivo. As for the experimental part: For Compound 2b, isomer 1, a single oral dose at 10 mg/kg in PEG 200 (dose volume 3 mL/kg) was administered to three cynomolgus monkeys. One Untreated animal was used for the collection of control liver. Terminal liver samples were collected from three animals at 6 hours post dose.

The conditions of series [3]: CD-1 mice, liver triphosphate, normalised to 1 μmol/kg; for Ms Liver TP AUC (pmol · hr/g at 1 μmol/kg) following a single 2 mg/kg dose: single oral 2 mg/kg dose.
Description: A single oral dose of test compound at 10 mg/kg and/or 2 mg/kg in PEG 200 (dose volume 5 mL/kg) was administered to nine CD-1 male mice. Five untreated animals were used for the collection of control plasma and liver. Terminal plasma and liver samples were collected from three animals per time point at 4, 12 and 24 hours post dose. Liver specimens were collected from all animals immediately after the incision. Freezing forceps stored in liquid nitrogen were used to freeze the liver before excision. Only liver samples were analyzed for triphosphate levels.
Liver samples were analyzed for the active species nucleoside triphosphate by LC-MS/MS. The triphosphate levels were assayed by homogenizing (on ice) a known weight of mouse liver with 4× volume of 0.95 M trichloroacetic acid (TCA) in water. Internal standard solution was added to the homogenate and mixed. Sample homogenates were centrifuged at 16.1 krpm for 5 minutes. Supernatants were transferred to 96 well plates and injected onto the LC-MS/MS system. The samples were chromatographed on a Luna NH2 column using a gradient system of ammonium acetate (1 mM to 20 mM and pH 8.0 to pH 10.0) in water and acetonitrile (70:30). The analyte was detected and quantified by tandem mass spectrometry using the analyte specific MRM transition on an API4000 equipped with a Turbo Ionspray® interface.
The subject of the next series is Zluc cells. The series is described as follows: Cytotoxicity evaluation, CellTiter-Blue Cell Viability Assay. It counts as cell-based. The settings on record: read-out: HCV Replicon CC50. As for the experimental part:
as §1

For series [4], the target named is T1, wild-type HCV genotype 1b NS5B protein (recombinant HCV polymerase) (Hepatitis C virus genotype 1b, UniProt Q9WMX2).
T1 construct: HCV genotype 1b NS5B protein were used to generate recombinant HCV polymerases (with a deletion of the 21 carboxy terminal amino acids); made in house
As to the kind of experiment: HCV Polymerase Enzyme Assay, wild-type. It counts as biochemical. From the text:
(§2) Test compounds in the form of nucleoside triphosphates were examined for inhibitory activity against purified HCV polymerase in a standard assay. Bacterial expression constructs encoding the approximately 65 kDa HCV genotype 1b NS5B protein were used to generate recombinant HCV polymerases (with a deletion of the 21 carboxy terminal amino acids). Both the wild-type genotype 1b protein and protein containing the S282T mutation were expressed and purified for use in the enzymatic activity assay.
The enzymatic activity assay measured the inhibitory effect of increasing concentrations of test compound on the incorporation of α-[^33P]-labeled nucleotide into trichloroacetic acid-precipitable material. Recombinant polymerase and synthetic RNA template were combined in reaction buffer containing ribonucleoside triphosphates, α-[^33P]-labeled nucleotide and eight concentrations of test compound in three-fold dilutions. Reactions were incubated for two hours at 30° C.
(§3) Reactions were terminated by the addition of ice-cold trichloroacetic acid and sodium pyrophosphate to promote precipitation of newly-synthesized ribonucleic acid. Precipitable material from the reactions was collected by filtration onto 96-well filter plates, washed extensively with water, and quantified by liquid scintillation.
(§4) The inhibitory activity of test compounds was determined by fitting results to dose-response curves using XLfit software.

Series [5] concerns the target T2, HCV genotype 1b NS5B protein containing the S282T mutation (Hepatitis C virus genotype 1b, UniProt Q9WMX2, S2701T).
T2 construct: HCV genotype 1b NS5B protein were used to generate recombinant HCV polymerases (with a deletion of the 21 carboxy terminal amino acids); made in house
As to the kind of experiment: HCV Polymerase Enzyme Assay, S282T. The class given is biochemical. The settings on record: nucleoside triphosphates; genotype 1b NS5B with S282T mutation.
Source text: as §2
The enzymatic activity assay measured the inhibitory effect of increasing concentrations of test compound on the incorporation of α-[^33P]-labeled nucleotide into trichloroacetic acid-precipitable material. Recombinant polymerase and synthetic RNA template were combined in reaction buffer containing ribonucleoside triphosphates, α-[^33P]-labeled nucleotide and eight concentrations of test compound in three-fold dilutions. […]
as §3, §4

The mark [6] stands for this setting: read-out: Wild-Type IC50, nucleoside triphosphates, wild-type genotype 1b NS5B.

Consider `CC(C)OC(=O)[C@H](C)NP(=O)(OC[C@@]1(F)O[C@@H](n2ccc(=O)[nH]c2=O)[C@H](O)[C@@H]1O)Oc1ccccc1` (single isomer, unassigned) [Compound 2b Diastereomer 1], for which, in the series on HCV genotype 1b replicon (listed as 2b Diastereomer 1), the EC50 was over 10000 nM. In addition, in series [1], the 50% cytotoxic concentration (CC50) is over 50000 nM. Further, the “Nucleoside triphosphate in Liver C6 (pmol/g) at 1 μmol/kg” value in series [2] (6 hr post dose, normalised to 1 μmol/kg) was “+ (+ ≦ 10 pmol/g)”. Besides, in series [2] (single oral 10 mg/kg, concentration at 6 hr post dose), the “Nucleoside triphosphate in Liver C6 (pmol/g) at 10 mg/kg” value is on record as “++++ (100 pmol/g < ++++ ≦ 160 pmol/g)”. In series [3], the “Ms Liver TP AUC (pmol · hr/g at 1 μmol/kg) following a single 2 mg/kg dose” value was “+++++ (1600 < +++++)”. For the same compound, the “Ms Liver TP AUC (pmol · hr/g at 1 μmol/kg) following a single 10 mg/kg dose” value in series [3] (single oral 10 mg/kg dose) is listed as “+++++ (1600 < +++++)”.
In the case of `CC(C)OC(=O)[C@H](C)NP(=O)(OC[C@@]1(F)O[C@@H](n2ccc(=O)[nH]c2=O)[C@H](O)[C@@H]1O)Oc1ccccc1` (single isomer, unassigned) [Compound 2b Diastereomer 2], the EC50 with HCV genotype 1b replicon (listed as 2b Diastereomer 2) fell in the range of 1000 to 10000 nM. The CC50 in the series with Zluc cells was over 50000 nM. Moreover, in series [3], the “Ms Liver TP AUC (pmol · hr/g at 1 μmol/kg) following a single 2 mg/kg dose” value is on record as “+++++ (1600 < +++++)”.
Turning to `CC(C)OC(=O)[C@H](C)NP(=O)(OC[C@@]1(F)O[C@@H](n2cnc3c(=O)[nH]c(N)nc32)[C@@H](O)C1O)Oc1ccccc1` (single isomer, unassigned) [Compound 3b Diastereomer 2], the EC50 in the series on HCV genotype 1b replicon (Hepatitis C virus, 72 h) lay within 250 to 1000 nM. In addition, the CC50 in series [1] was over 50000 nM.
With `C[C@]1(O)[C@H](n2cc(Br)c(=O)[nH]c2=O)O[C@](F)(COP(=O)(O)OP(=O)(O)OP(=O)(O)O)[C@H]1O` [Compound 101], the concentration for half-maximal inhibition (IC50) in series [4] lay within 1000 to 10000 nM.
For the compound `O=c1ccn(C2O[C@](F)(COP(=O)(O)OP(=O)(O)OP(=O)(O)O)[C@@H](O)[C@H]2O)c(=O)[nH]1` (stereo partly shown) [Compound 102], the IC50 in series [4] (setting [6]) is 250 to 1000 nM; in series [5], under 250 nM.
Regarding `Nc1nc2c(ncn2[C@@H]2O[C@](F)(COP(=O)(O)OP(=O)(O)OP(=O)(O)O)[C@@H](O)[C@H]2O)c(=O)[nH]1` [Compound 103], the IC50 in series [4] and in series [5] was under 250 nM in each case.
On to `O=c1[nH]c(=O)n([C@@H]2O[C@](F)(COP(=O)(O)OP(=O)(O)OP(=O)(O)O)[C@@H](O)[C@H]2O)cc1Br` [Compound 104], for which, in series [4], the IC50 lay within 1000 to 10000 nM.
In the case of `Nc1ccn(C2O[C@](F)(COP(=O)(O)OP(=O)(O)OP(=O)(O)O)[C@@H](O)[C@H]2O)c(=O)n1` (stereo partly shown) [Compound 105], the 50% inhibitory concentration (IC50) in series [4] (setting [6]) is 250 to 1000 nM.
As for `Nc1ncnc2c1ncn2[C@@H]1O[C@](F)(COP(=O)(O)OP(=O)(O)OP(=O)(O)O)[C@@H](O)[C@H]1O` [Compound 106], the IC50 in series [4] is over 10000 nM.

Values taken from US9211300B2 (priority 2012, dated 2015).
